Numbers after ± are expanded uncertainties.
Assay: xn = mol fraction of the nth substance listed
Conditions: Liquid, Vibrating tube method

CCCCCCCO [heptan-1-ol] + CCCCCCC
mass density [kg/m3]
Conditions | x1 = 0.1493 | x1 = 0.3215 | x1 = 0.5226 | x1 = 0.6698 | x1 = 0.8469 | x1 = 1
353.15 K, 80000 kPa | – | 741 ± 1.7 | 766.4 ± 1.7 | 785.9 ± 1.7 | 815.2 ± 4.1 | 828.7 ± 1.8
353.15 K, 90000 kPa | 729.1 ± 1.7 | 746.5 ± 1.7 | 771.7 ± 1.7 | 791.1 ± 1.7 | 820.1 ± 4.1 | 833.5 ± 1.8
353.15 K, 100000 kPa | 734.4 ± 1.8 | 751.6 ± 1.8 | 776.7 ± 1.8 | 795.9 ± 1.8 | 824.8 ± 4.1 | 837.9 ± 1.8
353.15 K, 110000 kPa | 739.6 ± 1.8 | 756.6 ± 1.8 | 781.5 ± 1.8 | 800.6 ± 1.8 | 829.3 ± 4.2 | 842.3 ± 1.9
353.15 K, 120000 kPa | 744.3 ± 1.9 | 761.2 ± 1.9 | 786 ± 1.8 | 804.9 ± 1.8 | 833.4 ± 4.2 | 846.4 ± 1.9
353.15 K, 130000 kPa | 748.8 ± 1.9 | 765.6 ± 1.9 | 790.2 ± 1.9 | 809 ± 1.9 | 837.5 ± 4.2 | 850.3 ± 1.9
353.15 K, 140000 kPa | 753.2 ± 2 | 769.9 ± 1.9 | 794.6 ± 1.9 | 813.2 ± 1.9 | 841.4 ± 4.2 | 854.3 ± 1.9
373.15 K, 100 kPa | – | – | – | – | – | 761.9 ± 7.6
373.15 K, 1000 kPa | 636.8 ± 1.4 | 658.8 ± 1.4 | 688.9 ± 1.4 | 712.2 ± 1.4 | 746.6 ± 4 | 762.8 ± 1.5
373.15 K, 5000 kPa | 643.2 ± 1.4 | 664.6 ± 1.4 | 694.1 ± 1.4 | 716.9 ± 1.5 | 750.7 ± 4 | 766.6 ± 1.5
373.15 K, 10000 kPa | 650.5 ± 1.4 | 671.2 ± 1.4 | 700 ± 1.5 | 722.4 ± 1.5 | 755.5 ± 4 | 771.1 ± 1.5
373.15 K, 15000 kPa | 656.9 ± 1.5 | 677.2 ± 1.5 | 705.5 ± 1.5 | 727.5 ± 1.5 | 760.2 ± 4 | 775.5 ± 1.6
373.15 K, 20000 kPa | 662.9 ± 1.5 | 682.7 ± 1.5 | 710.6 ± 1.5 | 732.2 ± 1.5 | 764.4 ± 4 | 779.5 ± 1.6
373.15 K, 25000 kPa | 668.4 ± 1.5 | 687.9 ± 1.5 | 715.4 ± 1.5 | 736.7 ± 1.5 | 768.6 ± 4.1 | 783.4 ± 1.6
373.15 K, 30000 kPa | 673.6 ± 1.5 | 692.7 ± 1.5 | 719.9 ± 1.5 | 740.9 ± 1.5 | 772.4 ± 4.1 | 787.1 ± 1.6
373.15 K, 35000 kPa | 678.4 ± 1.5 | 697.2 ± 1.5 | 724.1 ± 1.5 | 744.9 ± 1.6 | 776 ± 4.1 | 790.6 ± 1.6
373.15 K, 40000 kPa | 682.8 ± 1.5 | 701.4 ± 1.5 | 728.1 ± 1.6 | 748.7 ± 1.6 | 779.7 ± 4.1 | 794 ± 1.6
373.15 K, 45000 kPa | 687.2 ± 1.6 | 705.6 ± 1.6 | 732 ± 1.6 | 752.4 ± 1.6 | 783 ± 4.1 | 797.2 ± 1.7

From the NIST ThermoML archive (doi:10.1016/j.jct.2013.05.051)
